Laboratory results: ChEMBL document CHEMBL5038591, “Identification of a Novel TAR RNA-Binding Protein 2 Modulator with Potential Therapeutic Activity against Hepatocellular Carcinoma” (J Med Chem, 2021)
pIC50: −log10 of the molar value. Activity calls are given as the source filed them. The calls are words filed in the database; no cut-off is given here.

How the values were obtained:
[1] = system: SK-HEP1; test: Induction of cell cycle arrest in human SK-HEP1 cells assessed as G1 phase accumulation at 20 uM incubated for 24 hrs by propidium iodide staining based flow cytometry analysis (reference value: 48.61%); type: functional
[2] = system: SK-HEP1; test: Antiproliferative activity against human SK-HEP1 cells overexpressing TRBP at 20 uM measured by crystal violet dye based colony formation assay; type: functional, cell-based
[3] = system: SK-HEP1; test: Antiproliferative activity against human SK-HEP1 cells assessed as increase in miR-106b-5p level at 20 uM by qRT-PCR analysis; type: functional, cell-based
[4] = system: SK-HEP1; test: Antiproliferative activity against human SK-HEP1 cells assessed as increase in miR-21-5p level at 20 uM by qRT-PCR analysis; type: functional, cell-based
[5] = system: SK-HEP1; test: Antiproliferative activity against human SK-HEP1 cells assessed as increase in miR-26a-5p level at 20 uM by qRT-PCR analysis; type: functional, cell-based
[6] = system: SK-HEP1; test: Antiproliferative activity against human SK-HEP1 cells assessed as increase in miR-22-5p level at 20 uM by qRT-PCR analysis; type: functional, cell-based
[7] = system: SK-HEP1; test: Antiproliferative activity against human SK-HEP1 cells assessed as decrease in miR-30a-5p level at 20 uM by qRT-PCR analysis; type: functional, cell-based
[8] = system: HepG2; test: Antiproliferative activity against human HepG2 cells incubated for 24 hrs by alamar blue assay; details: HepG2, 24 h
[9] = system: HeLa; test: Antiproliferative activity against human HeLa cells incubated for 24 hrs by alamar blue assay
[10] = Antiproliferative activity against human QSG7701 cells incubated for 24 hrs by alamar blue assay; type: functional, cell-based; details: QSG7701, 24 h
[11] = system: HCT-116; test: Inhibition of colony formation in human HCT-116 cells at 30 uM incubated for 14 days by crystal violet staining based assay; type: functional, cell-based; details: time 14.0 day
[12] = system: SK-HEP1; test: Induction of cell cycle arrest in human SK-HEP1 cells assessed as G2 phase accumulation at 20 uM incubated for 24 hrs by propidium iodide staining based flow cytometry analysis (reference value: 24.12%); type: functional
[13] = system: SK-HEP1; test: Inhibition of cell migration in human SK-HEP1 cells at 30 uM incubated for 12 hrs by crystal violet staining based transwell assay; type: functional
[14] = system: MHCC97; test: Inhibition of cell migration in human MHCC97H cells at 30 uM incubated for 12 hrs by crystal violet staining based transwell assay; type: functional
[15] = system: SK-HEP1; test: Inhibition of epithelial-mesenchymal transition in human SK-HEP1 cells assessed as change in E-cadherin expression at 10 to 50 uM incubated for 24 hrs by Western blot analysis; type: functional, cell-based; details: dose 10-50 µM
[16] = system: SK-HEP1; test: Inhibition of epithelial-mesenchymal transition in human SK-HEP1 cells assessed as change in N-cadherin expression at 10 to 50 uM incubated for 24 hrs by Western blot analysis; type: functional, cell-based; details: dose 10-50 µM
[17] = system: SK-HEP1; test: Inhibition of epithelial-mesenchymal transition in human SK-HEP1 cells assessed as change in vimentin expression at 10 to 50 uM incubated for 24 hrs by Western blot analysis; type: functional, cell-based; details: dose 10-50 µM
[18] = system: SK-HEP1; test: Inhibition of epithelial-mesenchymal transition in human SK-HEP1 cells assessed as change in beta-catenin expression at 10 to 50 uM incubated for 24 hrs by Western blot analysis; type: functional, cell-based; details: dose 10-50 µM
[19] = system: MHCC97; test: Antitumor activity in human MHCC97 cells xenografted in SCID mouse assessed as suppression of tumor growth at 20 mg/kg, ip administered once every 3 day for 30 days by bioluminescence analysis; type: functional, organism-based; details: time 30.0 day
[20] = system: MHCC97; test: Antitumor activity in human MHCC97 cells xenografted in SCID mouse assessed as suppression of tumor growth at 40 mg/kg, ip administered once every 3 day for 30 days by bioluminescence analysis; type: functional, organism-based; details: time 30.0 day
[21] = Toxicity in SCID mouse xenografted with human MHCC97 cells assessed as increase in body weight at 40 mg/kg, ip administered once every 3 day for 30 days; type: organism-based; details: in vivo, 720 h, time 30 day
[22] = system: MHCC97; test: Antitumor activity in human MHCC97 cells xenografted in SCID mouse assessed as reduction in infiltration of inflammatory cells in left outer lobe of liver at 40 mg/kg, ip administered once every 3 days measured after 30 days by H and E staining based immunohistochemical analysis; type: functional, organism-based; details: time 30.0 day
[23] = system: MHCC97; test: Antitumor activity in human MHCC97 cells xenografted in SCID mouse assessed as reduction in infiltration of inflammatory cells in left middle lobe of liver at 40 mg/kg, ip measured after 30 days by H and E staining based immunohistochemical analysis; type: functional, organism-based; details: time 30.0 day
[24] = system: SK-HEP1; test: Effect on human SK-HEP1 cells assessed as increase in miR-497-5p level by qRT-PCR analysis; type: functional, cell-based
[25] = system: SK-HEP1; test: Effect on human SK-HEP1 cells assessed as increase in miR-146a-5p level by qRT-PCR analysis; type: functional, cell-based
[26] = system: SK-HEP1; test: Inhibition of MEK phosphorylation in human SK-HEP1 cells at 30 uM by Western blot analysis; type: cell-based
[27] = biological target: Serine/threonine-protein kinase AKT (Homo sapiens) (UniProt P31751+Q9Y243+P31749); test: Inhibition of AKT phosphorylation in human SK-HEP1 cells at 30 uM by Western blot analysis; type: cell-based
Sequence of Serine/threonine-protein kinase AKT (Homo sapiens) (P31749 whole entry, looked up): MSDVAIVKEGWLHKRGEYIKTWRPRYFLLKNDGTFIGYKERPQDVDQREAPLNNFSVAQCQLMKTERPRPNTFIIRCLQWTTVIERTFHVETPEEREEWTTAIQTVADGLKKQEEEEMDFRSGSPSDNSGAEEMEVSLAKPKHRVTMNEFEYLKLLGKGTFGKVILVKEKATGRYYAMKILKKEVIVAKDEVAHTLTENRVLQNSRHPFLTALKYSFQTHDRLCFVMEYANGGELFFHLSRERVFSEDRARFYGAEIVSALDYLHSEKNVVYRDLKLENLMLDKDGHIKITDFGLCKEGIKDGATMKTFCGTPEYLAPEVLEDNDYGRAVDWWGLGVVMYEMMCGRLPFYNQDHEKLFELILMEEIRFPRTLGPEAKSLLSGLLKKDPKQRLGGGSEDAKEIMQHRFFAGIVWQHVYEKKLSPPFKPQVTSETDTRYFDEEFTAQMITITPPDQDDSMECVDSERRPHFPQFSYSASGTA
Sequence of Serine/threonine-protein kinase AKT (Homo sapiens) (P31751 whole entry, looked up): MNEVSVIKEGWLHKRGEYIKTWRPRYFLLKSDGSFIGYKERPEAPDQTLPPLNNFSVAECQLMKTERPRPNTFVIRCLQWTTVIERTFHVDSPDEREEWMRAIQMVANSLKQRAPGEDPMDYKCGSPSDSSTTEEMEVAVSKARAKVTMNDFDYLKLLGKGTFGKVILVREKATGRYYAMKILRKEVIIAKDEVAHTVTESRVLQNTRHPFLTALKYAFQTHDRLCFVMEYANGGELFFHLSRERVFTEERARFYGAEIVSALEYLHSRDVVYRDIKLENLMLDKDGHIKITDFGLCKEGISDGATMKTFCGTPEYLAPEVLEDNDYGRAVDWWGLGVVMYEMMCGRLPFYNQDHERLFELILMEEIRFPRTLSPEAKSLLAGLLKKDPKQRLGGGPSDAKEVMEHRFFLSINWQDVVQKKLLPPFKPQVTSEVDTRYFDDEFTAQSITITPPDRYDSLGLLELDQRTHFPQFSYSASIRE
Sequence of Serine/threonine-protein kinase AKT (Homo sapiens) (Q9Y243 whole entry, looked up): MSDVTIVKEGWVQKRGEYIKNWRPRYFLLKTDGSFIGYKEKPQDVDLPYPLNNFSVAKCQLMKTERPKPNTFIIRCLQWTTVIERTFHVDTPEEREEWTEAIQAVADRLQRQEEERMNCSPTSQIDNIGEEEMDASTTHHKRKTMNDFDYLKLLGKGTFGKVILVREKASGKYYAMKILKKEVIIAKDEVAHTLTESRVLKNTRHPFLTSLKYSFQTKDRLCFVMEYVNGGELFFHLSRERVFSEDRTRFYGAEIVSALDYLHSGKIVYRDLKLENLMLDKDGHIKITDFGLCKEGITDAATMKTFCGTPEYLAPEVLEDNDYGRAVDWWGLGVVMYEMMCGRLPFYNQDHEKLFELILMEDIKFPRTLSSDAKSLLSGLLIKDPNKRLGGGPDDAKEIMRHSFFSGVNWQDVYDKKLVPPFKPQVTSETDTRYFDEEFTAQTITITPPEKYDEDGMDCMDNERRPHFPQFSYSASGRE

[28] = biological target: Mitogen-activated protein kinase; ERK1/ERK2 (Homo sapiens) (UniProt P27361+P28482); test: Inhibition of ERK1/2 phosphorylation in human SK-HEP1 cells at 30 uM by Western blot analysis; type: cell-based
Sequence of Mitogen-activated protein kinase; ERK1/ERK2 (Homo sapiens) (P27361 whole entry, looked up): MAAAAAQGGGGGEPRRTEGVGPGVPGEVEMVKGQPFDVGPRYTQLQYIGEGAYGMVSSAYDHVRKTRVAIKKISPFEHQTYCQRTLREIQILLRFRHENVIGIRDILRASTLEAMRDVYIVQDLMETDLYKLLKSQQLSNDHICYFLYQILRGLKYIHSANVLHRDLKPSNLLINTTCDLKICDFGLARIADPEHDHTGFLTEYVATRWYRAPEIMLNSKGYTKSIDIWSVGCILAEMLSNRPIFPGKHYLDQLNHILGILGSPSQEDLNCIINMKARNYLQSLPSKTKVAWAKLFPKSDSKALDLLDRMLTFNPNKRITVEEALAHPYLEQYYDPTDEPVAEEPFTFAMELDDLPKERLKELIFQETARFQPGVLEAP
Sequence of Mitogen-activated protein kinase; ERK1/ERK2 (Homo sapiens) (P28482 whole entry, looked up): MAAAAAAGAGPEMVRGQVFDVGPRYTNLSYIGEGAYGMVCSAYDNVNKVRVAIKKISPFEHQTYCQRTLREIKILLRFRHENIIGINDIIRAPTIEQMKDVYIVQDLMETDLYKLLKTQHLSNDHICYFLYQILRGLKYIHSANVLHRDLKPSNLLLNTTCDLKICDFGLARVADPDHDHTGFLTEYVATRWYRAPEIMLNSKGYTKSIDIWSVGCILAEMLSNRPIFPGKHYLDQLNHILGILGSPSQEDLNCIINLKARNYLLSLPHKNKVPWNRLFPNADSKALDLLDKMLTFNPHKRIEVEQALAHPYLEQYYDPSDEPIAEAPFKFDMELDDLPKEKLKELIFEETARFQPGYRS

[29] = system: Mus musculus; test: Downregulation of TPX2 expression in mouse liver at 40 mg/kg measured after 30 days by immunohistochemical staining analysis; type: functional, organism-based; details: time 30.0 day
[30] = system: SK-HEP1; test: Antiproliferative activity against human SK-HEP1 cells knockdown TRBP at 20 uM measured by crystal violet dye based colony formation assay; type: functional, cell-based
[31] = system: SK-HEP1; test: Inhibition of cell migration in human SK-HEP1 cells overexpressing TRBP at 20 uM measured after 12 hrs using crystal violet staining inverted microscope based transwell assay; type: functional
[32] = system: SK-HEP1; test: Antiproliferative activity against human SK-HEP1 cells assessed as increase in miR-214-5p level at 20 uM by qRT-PCR analysis; type: functional, cell-based
[33] = system: SK-HEP1; test: Antiproliferative activity against human SK-HEP1 cells assessed as increase in miR-224-5p level at 20 uM by qRT-PCR analysis; type: functional, cell-based
[34] = system: SK-HEP1; test: Antiproliferative activity against human SK-HEP1 cells assessed as increase in miR-452-5p level at 20 uM by qRT-PCR analysis; type: functional, cell-based
[35] = system: Huh-7; test: Antiproliferative activity against human Huh-7 cells at 25 uM incubated for 24 hrs by alamar blue assay; type: functional, cell-based
[36] = system: MHCC97; test: Antitumor activity against human MHCC97 cells xenografted in SCID mouse assessed as decrease in tumor size at 20 mg/kg, ip administered once every 3 days and measured after 10 days; type: functional, organism-based; details: time 10.0 day
[37] = system: MHCC97; test: Antitumor activity against human MHCC97 cells xenografted in SCID mouse assessed as decrease in tumor size at 40 mg/kg, ip administered once every 3 days and measured after 10 days; type: functional, organism-based; details: time 10.0 day
[38] = system: SK-HEP1; test: Effect on AGO2 protein expression in human SK-HEP1 cells at 30 uM after 24 hrs by immunoblot analysis; type: functional, cell-based
[39] = system: SK-HEP1; test: Effect on TRBP protein expression in human SK-HEP1 cells at 30 uM after 24 hrs by immunoblot analysis; type: functional, cell-based

- pIC50 [8]: 4.56
- pIC50 [9]: 4.48
- inhibition [27]: Active
- inhibition [28]: Active
Structure (SMILES): COc1cc2c(c(O)c1OC)-c1c(cc3c(c1OC)OCO3)C[C@H](C)[C@H](C)C2
- Activity [1]: 57.4%
- Activity [2]: Active
- Activity [3]: Active
- Activity [4]: Active
- Activity [5]: Active
- Activity [6]: inactive
- Activity [7]: inactive
- pIC50 [10]: 4.28
- inhibition [11]: Active
- Activity [12]: 19.68%
- inhibition [13]: Active
- inhibition [14]: Active
- inhibition [15]: inactive
- inhibition [16]: inactive
- inhibition [17]: inactive
- inhibition [18]: inactive
- Activity [19]: Active
- Activity [20]: Active
- Activity [21]: Toxic
- Activity [22]: Active
- Activity [23]: Active
- Activity [24]: Dose-Dependent Effect
- Activity [25]: Dose-Dependent Effect
- inhibition [26]: Active
- Activity [29]: Active
- Activity [30]: inactive
- inhibition [31]: Active
- Activity [32]: Active
- Activity [33]: inactive
- Activity [34]: inactive
- Activity [35]: Active
- Activity [36]: Active
- Activity [37]: Active
- Activity [38]: inactive
- Activity [39]: inactive
